According to patent publication EP1247803A2, “Indolinone compounds suitable for modulation of protein kinases” (Sugen, Inc., priority 1996, dated 1998):

How the values were obtained:
EGFR = molecular target: T1, EGFR (Homo sapiens, UniProt P00533); assay: EGFR ELISA assay (in vitro kinase activity, EGFR captured from A431 cell lysate); assay type: biochemical; set-up: concentration or dose not given beside the values
T1 construct: Add 7 ug A431 cell lysate per well (EGFR source); endogenous in cells; host or cells: A431
T1 sequence (P00533 25-1210): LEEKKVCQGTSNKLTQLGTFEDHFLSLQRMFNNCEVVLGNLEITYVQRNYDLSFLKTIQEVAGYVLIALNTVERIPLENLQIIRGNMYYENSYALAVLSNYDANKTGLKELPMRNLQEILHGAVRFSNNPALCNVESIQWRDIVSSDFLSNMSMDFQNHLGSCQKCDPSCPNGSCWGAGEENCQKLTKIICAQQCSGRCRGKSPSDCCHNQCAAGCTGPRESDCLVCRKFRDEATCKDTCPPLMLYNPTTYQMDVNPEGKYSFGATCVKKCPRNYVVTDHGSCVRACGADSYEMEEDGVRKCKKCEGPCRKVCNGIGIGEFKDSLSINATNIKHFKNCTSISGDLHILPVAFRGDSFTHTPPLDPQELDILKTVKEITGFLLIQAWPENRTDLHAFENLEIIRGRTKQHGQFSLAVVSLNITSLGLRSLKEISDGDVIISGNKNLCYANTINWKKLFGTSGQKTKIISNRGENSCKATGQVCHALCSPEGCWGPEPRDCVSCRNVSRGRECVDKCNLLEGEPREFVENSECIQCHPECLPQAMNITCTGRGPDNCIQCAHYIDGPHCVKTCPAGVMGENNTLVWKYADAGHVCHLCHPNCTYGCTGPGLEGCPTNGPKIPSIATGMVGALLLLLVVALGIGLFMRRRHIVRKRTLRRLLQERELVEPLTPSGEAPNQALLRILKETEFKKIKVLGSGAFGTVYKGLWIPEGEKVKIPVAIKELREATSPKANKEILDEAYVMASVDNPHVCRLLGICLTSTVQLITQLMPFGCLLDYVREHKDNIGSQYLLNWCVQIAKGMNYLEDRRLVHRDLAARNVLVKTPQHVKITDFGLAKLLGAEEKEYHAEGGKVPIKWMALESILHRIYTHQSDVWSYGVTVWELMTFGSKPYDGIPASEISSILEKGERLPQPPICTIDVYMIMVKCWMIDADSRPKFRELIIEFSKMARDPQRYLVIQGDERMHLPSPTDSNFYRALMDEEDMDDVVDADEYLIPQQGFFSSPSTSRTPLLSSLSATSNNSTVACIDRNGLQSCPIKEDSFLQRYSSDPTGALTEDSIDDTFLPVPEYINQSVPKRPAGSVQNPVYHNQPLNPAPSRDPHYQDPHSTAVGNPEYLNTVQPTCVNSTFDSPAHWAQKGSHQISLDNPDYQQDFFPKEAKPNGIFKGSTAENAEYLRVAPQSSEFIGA
Summary of the method: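 EGFR from A431 lysate was captured on anti-EGFR antibody-coated plates and preincubated with compounds for 30 min. Autophosphorylation ran 5 min with 3 uM ATP and 5 mM MnCl2 (final), stopped with 20 mM EDTA. Phosphotyrosine was detected by anti-pTyr ELISA with ABTS/H2O2, read at 410 nm.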

PDGF-R = PDGF-R (Homo sapiens, UniProt P09619); assay: PDGF-R ELISA; assay type: cell-based
Sequence of PDGF-R (P09619 33-1106, species assumed): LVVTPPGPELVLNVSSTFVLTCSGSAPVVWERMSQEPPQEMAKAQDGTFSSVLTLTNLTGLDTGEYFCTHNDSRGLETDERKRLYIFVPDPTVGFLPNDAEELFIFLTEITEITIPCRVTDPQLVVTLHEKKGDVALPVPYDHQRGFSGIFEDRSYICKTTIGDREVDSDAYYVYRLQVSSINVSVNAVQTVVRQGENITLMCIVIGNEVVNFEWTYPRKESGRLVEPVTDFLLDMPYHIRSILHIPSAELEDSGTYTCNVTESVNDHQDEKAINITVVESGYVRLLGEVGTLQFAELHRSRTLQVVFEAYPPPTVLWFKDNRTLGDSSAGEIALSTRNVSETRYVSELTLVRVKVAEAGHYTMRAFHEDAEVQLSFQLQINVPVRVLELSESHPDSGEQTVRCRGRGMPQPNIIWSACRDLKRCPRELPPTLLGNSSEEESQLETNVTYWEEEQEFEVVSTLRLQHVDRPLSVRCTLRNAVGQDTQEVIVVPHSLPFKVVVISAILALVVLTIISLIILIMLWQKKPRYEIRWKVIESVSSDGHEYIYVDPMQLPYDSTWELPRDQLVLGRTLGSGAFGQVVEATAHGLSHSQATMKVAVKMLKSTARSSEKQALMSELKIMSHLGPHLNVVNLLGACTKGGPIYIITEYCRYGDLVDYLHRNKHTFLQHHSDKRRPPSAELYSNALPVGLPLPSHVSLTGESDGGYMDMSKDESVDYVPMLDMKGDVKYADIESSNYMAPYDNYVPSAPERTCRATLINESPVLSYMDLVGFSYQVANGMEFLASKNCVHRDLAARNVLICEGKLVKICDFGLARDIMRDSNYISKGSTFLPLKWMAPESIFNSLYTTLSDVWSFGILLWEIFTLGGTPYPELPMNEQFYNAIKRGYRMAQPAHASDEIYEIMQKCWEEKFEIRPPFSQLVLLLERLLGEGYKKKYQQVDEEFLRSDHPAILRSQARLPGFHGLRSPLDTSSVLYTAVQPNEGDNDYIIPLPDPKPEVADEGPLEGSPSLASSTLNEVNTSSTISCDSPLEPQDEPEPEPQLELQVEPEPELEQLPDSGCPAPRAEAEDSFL
Text: A PDGF-R ELISA is described in International Patent Publication No. WO 96/40116, published December 19, 1996 by Tang et al.

| Structure (SMILES) | Biochem EGFR %Inhibition (EGFR) | PDGF Kinase %Inhibition (PDGF-R) |
| --- | --- | --- |
| O=C1Nc2ccc(S(=O)(=O)N3CCOCC3)cc2C1=Cc1cc([N+](=O)[O-])ccc1O [10733/F10] | 21.9% | -5.6% |
| O=C1Nc2c(Br)cc(Br)cc2C1=Cc1ccc(Br)s1 [10734/A11] | 12.5% | 5.5% |
| CNS(=O)(=O)c1ccc2c(c1)C(=Cc1ccc(O)c(Br)c1)C(=O)N2 [10734/D09] | 21.0% | 42.2% |
| Cc1cc(C=C2C(=O)Nc3ccc(CCCl)cc32)cc(C)c1OCc1ccccc1 [10733/G07] | 18.1% | -6.8% |
| O=C1Nc2ccc(I)cc2C1=Cc1ccc(Br)s1 [10734/B11] | 50.9% | -5.5% |
| CNS(=O)(=O)c1ccc2c(c1)C(=Cc1ccc(Br)s1)C(=O)N2 [10734/D11] | 14.6% | 17.0% |
| O=C1Nc2ccc(I)cc2C1=Cc1cc(Cl)cc(Cl)c1O [10734/B03] | 45.1% | 13.0% |
| Cc1cc(C=C2C(=O)Nc3ccc(S(=O)(=O)N4CCOCC4)cc32)cc(C)c1OCc1ccccc1 [10733/F07] | 19.2% | 1.7% |
| COc1c(C)cc(C=C2C(=O)Nc3ccc(S(=O)(=O)Nc4ccc(C(F)(F)F)cc4)cc32)cc1C [10733/E06] | 37.3% | 22.4% |
| CCOc1cccc(C=C2C(=O)Nc3c(Br)cc(Br)cc32)c1O [10734/A02] | 0.0% | -3.8% |
| CC(C)(C)c1ccc(C=C2C(=O)Nc3c(Br)cc(Br)cc32)cc1 [10734/A10] | 27.8% | 26.3% |
| Cc1c(Br)ccc2c1C(=Cc1ccc([N+](=O)[O-])cc1)C(=O)N2 [10734/C06] | 18.4% | -0.2% |
| Cc1c(Br)ccc2c1C(=Cc1ccc(Br)s1)C(=O)N2 [10734/C11] | 18.0% | 9.1% |
| CC(C)(C)c1cc(C=C2C(=O)Nc3ccc(CCCl)cc32)cc(I)c1OCc1ccccc1 [10733/G02] | -6.2% | -7.6% |
| COc1c(C)cc(C=C2C(=O)Nc3ccc(CCCl)cc32)cc1C [10733/G06] | 5.2% | 0.1% |
| COc1cc(Br)cc(C=C2C(=O)Nc3ccc(CCCl)cc32)c1O [10733/G08] | 44.2% | 68.7% |
| CC(C)(C)c1cc(C=C2C(=O)Nc3ccc(CCCl)cc32)cc(C(C)(C)C)c1OCc1ccccc1 [10733/G05] | 1.5% | -1.1% |
| Cc1c(Br)ccc2c1C(=Cc1cc(Cl)ccc1O)C(=O)N2 [10734/C04] | 38.1% | 24.5% |
| CCOc1cccc(C=C2C(=O)Nc3ccc(Br)c(C)c32)c1O [10734/C02] | -6.7% | 36.0% |
| COc1c([N+](=O)[O-])cc(C=C2C(=O)Nc3ccc(S(=O)(=O)N4CCOCC4)cc32)cc1C(C)(C)C [10733/F03] | -3.6% | 24.5% |
| CCN(CC)c1ccc(C=C2C(=O)Nc3c(Br)cc(Br)cc32)c(O)c1 [10734/A05] | 22.6% | 2.9% |
| O=C1Nc2ccc(S(=O)(=O)N3CCOCC3)cc2C1=Cc1cc(Br)ccc1O [10733/F09] | 30.1% | -0.3% |
